Data from US12509421B2, “Preparation and application of deuterated 4-phenyl-4-piperidinols” (priority 2022, dated 2025).
Counter-ions that a name gives are not always drawn. Like-named read-outs stand apart in the source and are kept apart here.

Key:
Female Kunming mice = conditions: as disclosed in patent CN201911076305.X; cited from earlier work
hERG potassium channel = hERG potassium channel (Homo sapiens, UniProt Q12809); test: hERG potassium channel whole-cell patch clamp (HEK293); format: cell-based; parameters: expressed in transfected cells; host or cells: HEK293 cell line; conditions: for IC50: HEK293 cells stably expressing hERG, whole-cell patch clamp, room temperature, read-out: Half-inhibition concentration of compounds to be tested on hERG (IC50)
How it was run: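 Whole-cell patch clamp in HEK293 cells at room temperature: tail current elicited by −80 to 30 mV for 2.5 s, then −50 mV for 4 s, every 10 s. Ascending concentrations were gravity-perfused for 5 min each, with each cell's compound-free current as control. IC50 came from nonlinear fit of inhibition.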

Chain of hERG potassium channel (Q12809 whole entry, the tested form may be a part): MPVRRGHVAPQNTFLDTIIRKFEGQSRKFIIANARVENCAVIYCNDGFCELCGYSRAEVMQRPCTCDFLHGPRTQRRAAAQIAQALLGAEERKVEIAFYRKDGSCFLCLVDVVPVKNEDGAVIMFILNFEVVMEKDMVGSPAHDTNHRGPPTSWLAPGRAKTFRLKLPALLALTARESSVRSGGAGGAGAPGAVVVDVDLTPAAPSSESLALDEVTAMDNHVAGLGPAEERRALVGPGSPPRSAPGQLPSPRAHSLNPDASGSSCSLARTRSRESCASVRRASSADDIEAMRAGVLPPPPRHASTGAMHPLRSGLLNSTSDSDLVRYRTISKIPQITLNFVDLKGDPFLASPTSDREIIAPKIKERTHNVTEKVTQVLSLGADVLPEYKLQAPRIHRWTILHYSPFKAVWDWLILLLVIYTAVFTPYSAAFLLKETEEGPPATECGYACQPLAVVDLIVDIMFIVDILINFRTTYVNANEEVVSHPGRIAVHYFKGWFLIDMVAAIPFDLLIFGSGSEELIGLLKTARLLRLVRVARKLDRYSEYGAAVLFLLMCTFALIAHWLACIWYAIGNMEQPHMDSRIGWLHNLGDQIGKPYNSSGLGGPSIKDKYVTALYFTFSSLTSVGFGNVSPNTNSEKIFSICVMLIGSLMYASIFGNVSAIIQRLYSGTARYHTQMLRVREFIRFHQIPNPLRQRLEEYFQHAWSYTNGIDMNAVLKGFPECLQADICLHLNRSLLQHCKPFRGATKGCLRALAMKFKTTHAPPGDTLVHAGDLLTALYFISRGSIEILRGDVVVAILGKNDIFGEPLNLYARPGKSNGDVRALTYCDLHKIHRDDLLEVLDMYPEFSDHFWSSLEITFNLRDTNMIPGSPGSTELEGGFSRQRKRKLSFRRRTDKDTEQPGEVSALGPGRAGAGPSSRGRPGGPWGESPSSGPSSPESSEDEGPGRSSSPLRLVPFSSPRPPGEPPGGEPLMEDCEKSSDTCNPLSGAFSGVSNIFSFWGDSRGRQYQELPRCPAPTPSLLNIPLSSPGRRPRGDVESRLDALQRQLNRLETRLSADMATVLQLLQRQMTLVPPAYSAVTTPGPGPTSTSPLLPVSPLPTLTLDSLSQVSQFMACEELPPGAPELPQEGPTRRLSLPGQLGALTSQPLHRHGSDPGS

| Structure (SMILES) | ED50 in mouse hot plate experiments (Female Kunming mice) | hERG inhibition grade (hERG potassium channel; listed as Example 20 of patent CN201911076305.X, hydrochloride) | hERG inhibition grade (hERG potassium channel; listed as example 20 of the prior art CN201911076305.X, hydrochloride) | hERG inhibition grade (hERG potassium channel) | IC50 (hERG potassium channel) |
| --- | --- | --- | --- | --- | --- |
| COc1cccc([C@]2(O)CCN(S(=O)(=O)Cc3ccccc3)C[C@H]2CN(C)C)c1.Cl [Example 20 of CN201911076305.X, reference compound] | 0.49 mg/kg | moderate inhibitory effects on hERG | μM(Moderate intensity inhibition) |  |  |
| [2H]C([2H])([2H])N(C[C@@H]1CN(S(=O)(=O)Cc2ccccc2)CC[C@@]1(O)c1cccc(OC)c1)C([2H])([2H])[2H] [II-3hydrochloride] |  |  |  | μM((Weak inhibition) | 14.7 µM |
| [2H]C([2H])([2H])Oc1cccc([C@]2(O)CCN(S(=O)(=O)Cc3ccccc3)C[C@H]2CN(C([2H])([2H])[2H])C([2H])([2H])[2H])c1 [II-5hydrochloride] |  |  |  | μM((Weak inhibition) | 23.9 µM |
| [2H]C([2H])([2H])N(C[C@@H]1CN(C(=O)Cc2cc(F)c(F)cc2F)CC[C@@]1(O)c1cccc(OC)c1)C([2H])([2H])[2H] [II-9hydrochloride] |  |  |  | μM((Weak inhibition) | 20.5 µM |
| [2H]C([2H])([2H])Oc1cccc([C@]2(O)CCN(C(=O)Cc3cc(F)c(F)cc3F)C[C@H]2CN(C([2H])([2H])[2H])C([2H])([2H])[2H])c1 [II-11hydrochloride] |  |  |  | μM((Weak inhibition) | 20.2 µM |
